Assay: Drug release experiments (phosphate buffer pH 7, 37° C.)
Type: physicochemical
Description: Furthermore drug release tests were carried out with biodegradable matrix polymers. The above mentioned polyester methacrylate networks were loaded with 5% gentamicin and enoxazin, respectively. Samples having a size of 1×2 cm^2 were cut open and placed into a medium for release (4 ml phosphate buffer, pH 7). The pieces of the films were placed in tubes for a centrifuge, in a manner allowing the buffer solution to contact the films from all sides. The centrifuge tubes were placed into a shaking water bath at 37° C. and at predetermined intervals the medium for release was exchanged completely in order to determine the amount of the drug released. […] Samples are placed into polypropylene centrifuge vessels (which may be closed) of a volume of 15 ml and placed into contact with 4 ml of the releasing medium. […] The release experiment is carried out in a temperature controlled shaking water bath at 37° C. with 60 revolutions per minute. The temperature is controlled with an accuracy of ±0.1 K. […] The experiment is concluded when all of the drug has been released. The establishment of the release profile occurs by means of determination of the released drug by UV-Vis-spectroscopy. The resulting release profiles represent the arithmetical average from parallel experiments regarding the release from three samples of one material. If the experiment is terminated prior to the complete release of the drug from the matrix, a determination of the drug remaining in the polymer network becomes necessary. […] Using 5 ml chloroform the networks are swollen, and destroyed mechanically using a glass rod. Using additional 5 ml chloroform the swollen enoxacin containing fragments are extracted. With […] containing networks extraction is carried out using 5 ml 2-propanol. […] The content of drug remaining in the matrix is added to the content as determined with the release experiment.

[1] = from amorphous matrix N-LG(18)-10 (FIG. 4)
[2] = matrix based on paradioxanone and caprolactone, unmodified

| drug release profile [1] | drug release profile at the beginning of the release [2] | time until plateau of release is reached [2] | Compound | drug release profile (networks on the basis of polylactide-co-glycolide, segment Mn about 10000, 15 wt.-% glycolide content) |
| --- | --- | --- | --- | --- |
| step profile |  |  | O=C1CN(/N=C/c2ccc([N+](=O)[O-])o2)C(=O)N1 [nitrofurantoine] |  |
| released more rapidly |  |  | CCOc1ccc2nc3cc(N)ccc3c(N)c2c1 [ethacridine lactate] | substantially linear release, with a slightly accelerated release at the beginning |
|  | rapid release (burst-effect) | within two days | gentamicin |  |

From US8158143B2, “Systems for releasing active ingredients, based on biodegradable or biocompatible polymers with a shape memory effect” (Helmholtz-Zentrum Geesthacht Zentrum fuer Material- und …, priority 2000, dated 2012)
